Reference: ChEMBL document CHEMBL1136062 (2002)
Converted amounts (≈) assume the structure as drawn.

How the values were obtained:
Type in all cases: functional
Enterococcus faecium [1] = test: Tested in vitro for its antibacterial activity against vancomycin resistant Enterococcus faecium (CL4931)
Enterococcus faecium [2] = test: Tested in vitro for its antibacterial activity against vancomycin resistant Enterococcus faecium (MB5244)
Enterococcus faecium [3] = test: Tested in vitro for its antibacterial activity against vancomycin sensitive Enterococcus faecium (RLA1)
Enterococcus faecalis [4] = test: Tested in vitro for its antibacterial activity against vancomycin resistant Enterococcus faecalis (MB4877)
Enterococcus faecalis [5] = test: Tested in vitro for its antibacterial activity against vancomycin sensitive Enterococcus faecalis (MB2864)
Staphylococcus aureus [6] = test: Tested in vitro for its antibacterial activity against methicillin resistant Staphylococcus aureus (MH76)
Staphylococcus aureus [7] = test: Tested in vitro for its antibacterial activity against methicillin sensitive Staphylococcus aureus (MB2985)
Staphylococcus aureus [8] = test: In vitro antibacterial activity against vancomycin intermediate resistant Staphylococcus aureus (CL5706)
Staphylococcus aureus [9] = test: In vitro antibacterial activity against vancomycin intermediate resistant Staphylococcus aureus (CL5705)
Staphylococcus aureus [10] = test: Tested in vitro for its antibacterial activity against methicillin resistant Staphylococcus aureus (COL)
Staphylococcus aureus [11] = test: Tested in vitro for its antibacterial activity against methicillin resistant Staphylococcus aureus (Mh76)

Structure (SMILES)	MIC (Enterococcus faecium [1]) [µg/mL]	MIC (Enterococcus faecium [2]) [µg/mL]	MIC (Enterococcus faecium [3]) [µg/mL]	MIC (Enterococcus faecalis [4]) [µg/mL]	MIC (Enterococcus faecalis [5]) [µg/mL]	MIC (Staphylococcus aureus [6]) [µg/mL]	MIC (Staphylococcus aureus [7]) [µg/mL]	MIC (Staphylococcus aureus [8]) [µg/mL]	MIC (Staphylococcus aureus [9]) [µg/mL]	MIC (Staphylococcus aureus [10]) [µg/mL]	MIC (Staphylococcus aureus [11]) [µg/mL]
CN[C@H](CC(C)C)C(=O)N[C@H]1C(=O)N[C@@H](CC(N)=O)C(=O)N[C@H]2C(=O)N[C@H]3C(=O)N[C@H](C(=O)N[C@H](C(=O)O)c4cc(O)cc(O)c4-c4cc3ccc4O)[C@H](O)c3ccc(c(Cl)c3)Oc3cc2cc(c3OC2OC(C[N+](C)(C)Cc3ccccc3)C(O)C(O)C2OC2CC(C)(NCc3ccc(OCc4ccc(Cl)c(Cl)c4)cc3)C(O)C(C)O2)Oc2ccc(cc2Cl)[C@H]1O (some centres undefined)	> 64	1	0.25	16	2	0.25	0.25	1	1	0.5	–
CN[C@H](CC(C)C)C(=O)N[C@H]1C(=O)N[C@@H](CC(N)=O)C(=O)N[C@H]2C(=O)N[C@H]3C(=O)N[C@H](C(=O)N[C@H](C(=O)O)c4cc(O)cc(O)c4-c4cc3ccc4O)[C@H](O)c3ccc(c(Cl)c3)Oc3cc2cc(c3OC2OC(CN(C)C)C(O)C(O)C2OC2CC(C)(NCc3ccc(OCc4ccc(Cl)c(Cl)c4)cc3)C(O)C(C)O2)Oc2ccc(cc2Cl)[C@H]1O (some centres undefined)	32 (≈ 18.4 µM)	1 (≈ 0.574 µM)	≤ 0.03	16 (≈ 9.19 µM)	1 (≈ 0.574 µM)	0.25 (≈ 0.144 µM)	≤ 0.03	0.5 (≈ 0.287 µM)	1 (≈ 0.574 µM)	0.5 (≈ 0.287 µM)	–
CN[C@H](CC(C)C)C(=O)N[C@H]1C(=O)N[C@@H](CC(N)=O)C(=O)N[C@H]2C(=O)N[C@H]3C(=O)N[C@H](C(=O)N[C@H](C(=O)O)c4cc(O)cc(O)c4-c4cc3ccc4O)[C@H](O)c3ccc(c(Cl)c3)Oc3cc2cc(c3OC2OC(C[N+]34CCN(CC3)CC4)C(O)C(O)C2OC2CC(C)(NCc3ccc(OCc4ccc(Cl)c(Cl)c4)cc3)C(O)C(C)O2)Oc2ccc(cc2Cl)[C@H]1O (some centres undefined)	> 32	1	0.5	8	2	1	1	2	2	1	–
CN[C@H](CC(C)C)C(=O)N[C@H]1C(=O)N[C@@H](CC(N)=O)C(=O)N[C@H]2C(=O)N[C@H]3C(=O)N[C@H](C(=O)N[C@H](C(=O)O)c4cc(O)cc(O)c4-c4cc3ccc4O)[C@H](O)c3ccc(c(Cl)c3)Oc3cc2cc(c3OC2OC(C[N+](C)(C)C)C(O)C(O)C2OC2CC(C)(NCc3ccc(OCc4ccc(Cl)c(Cl)c4)cc3)C(O)C(C)O2)Oc2ccc(cc2Cl)[C@H]1O (some centres undefined)	> 64	1	0.5	16	1	0.5	0.5	2	2	0.5	–
CN[C@H](CC(C)C)C(=O)N[C@H]1C(=O)N[C@@H](CC(N)=O)C(=O)N[C@H]2C(=O)N[C@H]3C(=O)N[C@H](C(=O)N[C@H](C(=O)O)c4cc(O)cc(O)c4-c4cc3ccc4O)[C@H](O)c3ccc(c(Cl)c3)Oc3cc2cc(c3OC2OC(C[N+](C)(C)CCN(C)C)C(O)C(O)C2OC2CC(C)(NCc3ccc(OCc4ccc(Cl)c(Cl)c4)cc3)C(O)C(C)O2)Oc2ccc(cc2Cl)[C@H]1O (some centres undefined)	> 64	8	1	> 64	4	–	2	4	2	2	2
CNCC1OC(Oc2c3cc4cc2Oc2ccc(cc2Cl)[C@@H](O)[C@@H](NC(=O)[C@@H](CC(C)C)NC)C(=O)N[C@@H](CC(N)=O)C(=O)N[C@H]4C(=O)N[C@H]2C(=O)N[C@H](C(=O)N[C@H](C(=O)O)c4cc(O)cc(O)c4-c4cc2ccc4O)[C@H](O)c2ccc(c(Cl)c2)O3)C(OC2CC(C)(NCc3ccc(OCc4ccc(Cl)c(Cl)c4)cc3)C(O)C(C)O2)C(O)C1O (some centres undefined)	32 (≈ 18.5 µM)	1 (≈ 0.579 µM)	0.03 (≈ 0.0174 µM)	4 (≈ 2.32 µM)	0.25 (≈ 0.145 µM)	0.12 (≈ 0.0695 µM)	≤ 0.03	0.25 (≈ 0.145 µM)	1 (≈ 0.579 µM)	0.12 (≈ 0.0695 µM)	–
CN[C@H](CC(C)C)C(=O)N[C@H]1C(=O)N[C@@H](CC(N)=O)C(=O)N[C@H]2C(=O)N[C@H]3C(=O)N[C@H](C(=O)N[C@H](C(=O)O)c4cc(O)cc(O)c4-c4cc3ccc4O)[C@H](O)c3ccc(c(Cl)c3)Oc3cc2cc(c3OC2OC(C[N+](C)(C)CCO)C(O)C(O)C2OC2CC(C)(NCc3ccc(OCc4ccc(Cl)c(Cl)c4)cc3)C(O)C(C)O2)Oc2ccc(cc2Cl)[C@H]1O (some centres undefined)	> 64	4	0.5	8	2	1	2	2	2	1	–
CN[C@H](CC(C)C)C(=O)N[C@H]1C(=O)N[C@@H](CC(N)=O)C(=O)N[C@H]2C(=O)N[C@H]3C(=O)N[C@H](C(=O)N[C@H](C(=O)O)c4cc(O)cc(O)c4-c4cc3ccc4O)[C@H](O)c3ccc(c(Cl)c3)Oc3cc2cc(c3O[C@@H]2O[C@H](CO)[C@@H](O)[C@H](O)[C@H]2O[C@H]2C[C@](C)(N)[C@H](O)[C@H](C)O2)Oc2ccc(cc2Cl)[C@H]1O [VANCOMYCIN]	2050 (≈ 1410 µM)	16 (≈ 11 µM)	–	2050 (≈ 1410 µM)	–	–	–	8 (≈ 5.52 µM)	–	–	–
